What was measured:
Design in all cases: scale not given here
[1] = test system: ABUTH Velvetleaf; assay: Preemergence herbicidal evaluation, ABUTH; type: in vivo, Abutilon theophrasti, Medic.; conditions: preemergence
Method in brief: (§1)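 Preemergence soil spray: aqueous acetone, ~0.013–0.800 kg/ha, applied right after sowing (seed/potting-soil mix over ~1 in soil). Greenhouse, routine watering. Scored 4–5 wk post-treatment on a rating scale.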

[2] = test system: ORYSAT Rice, Tebonnet; assay: Postemergence herbicidal evaluation, ORYSAT; type: in vivo, Oryza sativa, (L.); conditions: postemergence spray, rated about two-three weeks after treatment
Method in brief: (§2)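 Postemergence spray, 40 psi nozzle, on ~2-week seedlings. Carrier: acetone/water 80/20, 1.0% methylated seed oil; dose ~0.006–0.400 kg/ha. Scored visually at 2–3 weeks.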

[3] = test system: AMBEL Ragweed, Common; assay: Postemergence herbicidal evaluation, AMBEL; type: in vivo, Ambrosia artemisifolia, L.; conditions: postemergence spray, rated about two-three weeks after treatment
Method in brief: as §2

[4] = test system: ABUTH Velvetleaf; assay: Postemergence herbicidal evaluation, ABUTH; type: in vivo, Abutilon theophrasti, Medic.; conditions: postemergence spray, rated about two-three weeks after treatment
Method in brief: as §2

[5] = test system: GALAP Galium; assay: Preemergence herbicidal evaluation, GALAP; type: in vivo, Galium aparine; conditions: preemergence
Method in brief: as §1

[6] = test system: CASOB Sicklepod; assay: Postemergence herbicidal evaluation, CASOB; type: in vivo, Cassia obtusifolia, L.; conditions: postemergence spray, rated about two-three weeks after treatment
Method in brief: as §2

[7] = test system: IPOHE Morningglory, Ivyleaf; assay: Postemergence herbicidal evaluation, IPOHE; type: in vivo, Ipomoea hederacea, (L.) Jacq.; conditions: postemergence spray, rated about two-three weeks after treatment
Method in brief: as §2

[8] = test system: GLXMAW Soybean, Williams; assay: Postemergence herbicidal evaluation, GLXMAW; type: in vivo, Glycine max, (L.) Merr. cv Williams; conditions: postemergence spray, rated about two-three weeks after treatment
Method in brief: as §2

[9] = test system: ZEAMX Corn, Field; assay: Postemergence herbicidal evaluation, ZEAMX; type: in vivo, Zea mays, L. (Sammel-Bezeichnung); conditions: postemergence spray, rated about two-three weeks after treatment
Method in brief: as §2

[10] = test system: SETVI Foxtail, Green; assay: Preemergence herbicidal evaluation, SETVI; type: in vivo, Setaria viridis, (L.) Beau; conditions: preemergence
Method in brief: as §1

[11] = test system: ORYSAT Rice, Tebonnet; assay: Preemergence herbicidal evaluation, ORYSAT; type: in vivo, Oryza sativa, (L.); conditions: preemergence
Method in brief: as §1

[12] = test system: SETVI Foxtail, Green; assay: Postemergence herbicidal evaluation, SETVI; type: in vivo, Setaria viridis, (L.) Beau; conditions: postemergence spray, rated about two-three weeks after treatment
Method in brief: as §2

[13] = test system: IPOHE Morningglory, Ivyleaf; assay: Preemergence herbicidal evaluation, IPOHE; type: in vivo, Ipomoea hederacea, (L.) Jacq.; conditions: preemergence
Method in brief: as §1

[14] = test system: GALAP Galium; assay: Postemergence herbicidal evaluation, GALAP; type: in vivo, Galium aparine; conditions: postemergence spray, rated about two-three weeks after treatment
Method in brief: as §2

[15] = test system: TRZAWR Wheat, Winter, cv Riband; assay: Preemergence herbicidal evaluation, TRZAWR; type: in vivo, Triticum aestivum; conditions: preemergence
Method in brief: as §1

[16] = test system: AMBEL Ragweed, Common; assay: Preemergence herbicidal evaluation, AMBEL; type: in vivo, Ambrosia artemisifolia, L.; conditions: preemergence
Method in brief: as §1

[17] = test system: GLXMAW Soybean, Williams; assay: Preemergence herbicidal evaluation, GLXMAW; type: in vivo, Glycine max, (L.) Merr. cv Williams; conditions: preemergence
Method in brief: as §1

[18] = test system: ZEAMX Corn, Field; assay: Preemergence herbicidal evaluation, ZEAMX; type: in vivo, Zea mays, L. (Sammel-Bezeichnung); conditions: preemergence
Method in brief: as §1

[19] = test system: CASOB Sicklepod; assay: Preemergence herbicidal evaluation, CASOB; type: in vivo, Cassia obtusifolia, L.; conditions: preemergence
Method in brief: as §1

[20] = test system: TRZAWR Wheat, Winter, cv Riband; assay: Postemergence herbicidal evaluation, TRZAWR; type: in vivo, Triticum aestivum; conditions: postemergence spray, rated about two-three weeks after treatment
Method in brief: as §2

[21] = test system: CHEAL Lambsquarters, Common; assay: Preemergence herbicidal evaluation, CHEAL; type: in vivo, Chenopodium album, L.; conditions: preemergence
Method in brief: as §1

[22] = test system: ECHOG Barnyardgrass; assay: Postemergence herbicidal evaluation, ECHOG; type: in vivo, Echinochloa crus-galli, (L.) Beau; conditions: postemergence spray, rated about two-three weeks after treatment
Method in brief: as §2

[23] = test system: CHEAL Lambsquarters, Common; assay: Postemergence herbicidal evaluation, CHEAL; type: in vivo, Chenopodium album, L.; conditions: postemergence spray, rated about two-three weeks after treatment
Method in brief: as §2

[24] = test system: ECHOG Barnyardgrass; assay: Preemergence herbicidal evaluation, ECHOG; type: in vivo, Echinochloa crus-galli, (L.) Beau; conditions: preemergence
Method in brief: as §1

## CCc1ccc(-n2nnc3cc(F)c(-n4c(=O)cc(C(F)(F)F)n(C)c4=O)cc32)cc1COC [Example 28]
[1]; rate 0.032 kg/ha
  ABUTH herbicidal rating: 2.0
[1]; rate 0.062 kg/ha
  ABUTH herbicidal rating: 9.0
[1]; rate 0.125 kg/ha
  ABUTH herbicidal rating: 9.0
[2]; 0.008 kg/ha
  Postemergence herbicidal rating ORYSAT: 0.5
[2]; 0.016 kg/ha
  Postemergence herbicidal rating ORYSAT: 2.0
[2]; 0.032 kg/ha
  Postemergence herbicidal rating ORYSAT: 3.0
[2]; 0.062 kg/ha
  Postemergence herbicidal rating ORYSAT: 5.5
[3]; 0.008 kg/ha
  Postemergence herbicidal rating AMBEL: 9.0
[3]; 0.016 kg/ha
  Postemergence herbicidal rating AMBEL: 9.0
[3]; 0.032 kg/ha
  Postemergence herbicidal rating AMBEL: 9.0
[3]; 0.062 kg/ha
  Postemergence herbicidal rating AMBEL: 9.0
[4]; 0.008 kg/ha
  Postemergence herbicidal rating ABUTH: 9.0
[4]; 0.016 kg/ha
  Postemergence herbicidal rating ABUTH: 9.0
[4]; 0.032 kg/ha
  Postemergence herbicidal rating ABUTH: 9.0
[4]; 0.062 kg/ha
  Postemergence herbicidal rating ABUTH: 9.0
[5]; rate 0.016 kg/ha
  GALAP herbicidal rating: 0.0
[5]; rate 0.032 kg/ha
  GALAP herbicidal rating: 0.0
[5]; rate 0.062 kg/ha
  GALAP herbicidal rating: 0.0
[5]; rate 0.125 kg/ha
  GALAP herbicidal rating: 9.0
[6]; 0.008 kg/ha
  Postemergence herbicidal rating CASOB: 0.0
[6]; 0.016 kg/ha
  Postemergence herbicidal rating CASOB: 0.0
[6]; 0.032 kg/ha
  Postemergence herbicidal rating CASOB: 1.0
[6]; 0.062 kg/ha
  Postemergence herbicidal rating CASOB: 3.0
[7]; 0.008 kg/ha
  Postemergence herbicidal rating IPOHE: 9.0
[7]; 0.016 kg/ha
  Postemergence herbicidal rating IPOHE: 9.0
[7]; 0.032 kg/ha
  Postemergence herbicidal rating IPOHE: 9.0
[7]; 0.062 kg/ha
  Postemergence herbicidal rating IPOHE: 9.0
[8]; 0.008 kg/ha
  Postemergence herbicidal rating GLXMAW: 4.0
[8]; 0.016 kg/ha
  Postemergence herbicidal rating GLXMAW: 5.0
[8]; 0.032 kg/ha
  Postemergence herbicidal rating GLXMAW: 6.0
[8]; 0.062 kg/ha
  Postemergence herbicidal rating GLXMAW: 6.5
[9]; 0.008 kg/ha
  Postemergence herbicidal rating ZEAMX: 3.5
[9]; 0.016 kg/ha
  Postemergence herbicidal rating ZEAMX: 6.0
[9]; 0.032 kg/ha
  Postemergence herbicidal rating ZEAMX: 6.0
[9]; 0.062 kg/ha
  Postemergence herbicidal rating ZEAMX: 7.5
[10]; rate 0.016 kg/ha
  SETVI herbicidal rating: 0.0
[10]; rate 0.032 kg/ha
  SETVI herbicidal rating: 2.0
[10]; rate 0.062 kg/ha
  SETVI herbicidal rating: 4.0
[10]; rate 0.125 kg/ha
  SETVI herbicidal rating: 9.0
[11]; rate 0.016 kg/ha
  ORYSAT herbicidal rating: 0.0
[11]; rate 0.032 kg/ha
  ORYSAT herbicidal rating: 0.0
[11]; rate 0.062 kg/ha
  ORYSAT herbicidal rating: 0.0
[11]; rate 0.125 kg/ha
  ORYSAT herbicidal rating: 0.0
[12]; 0.008 kg/ha
  Postemergence herbicidal rating SETVI: 0.0
[12]; 0.016 kg/ha
  Postemergence herbicidal rating SETVI: 3.0
[12]; 0.032 kg/ha
  Postemergence herbicidal rating SETVI: 7.0
[12]; 0.062 kg/ha
  Postemergence herbicidal rating SETVI: 9.0
[13]; rate 0.016 kg/ha
  IPOHE herbicidal rating: 0.0
[13]; rate 0.032 kg/ha
  IPOHE herbicidal rating: 0.0
[13]; rate 0.062 kg/ha
  IPOHE herbicidal rating: 1.0
[13]; rate 0.125 kg/ha
  IPOHE herbicidal rating: 1.0
[14]; 0.008 kg/ha
  Postemergence herbicidal rating GALAP: 4.0
[14]; 0.016 kg/ha
  Postemergence herbicidal rating GALAP: 4.0
[14]; 0.032 kg/ha
  Postemergence herbicidal rating GALAP: 6.0
[14]; 0.062 kg/ha
  Postemergence herbicidal rating GALAP: 8.0
[15]; rate 0.016 kg/ha
  TRZAWR herbicidal rating: 0.0
[15]; rate 0.032 kg/ha
  TRZAWR herbicidal rating: 0.0
[15]; rate 0.062 kg/ha
  TRZAWR herbicidal rating: 0.0
[15]; rate 0.125 kg/ha
  TRZAWR herbicidal rating: 0.0
[16]; rate 0.016 kg/ha
  AMBEL herbicidal rating: 0.0
[16]; rate 0.032 kg/ha
  AMBEL herbicidal rating: 0.0
[16]; rate 0.062 kg/ha
  AMBEL herbicidal rating: 1.0
[16]; rate 0.125 kg/ha
  AMBEL herbicidal rating: 7.0
[17]; rate 0.016 kg/ha
  GLXMAW herbicidal rating: 0.0
[17]; rate 0.032 kg/ha
  GLXMAW herbicidal rating: 0.0
[17]; rate 0.062 kg/ha
  GLXMAW herbicidal rating: 0.0
[17]; rate 0.125 kg/ha
  GLXMAW herbicidal rating: 0.0
[18]; rate 0.016 kg/ha
  ZEAMX herbicidal rating: 0.0
[18]; rate 0.032 kg/ha
  ZEAMX herbicidal rating: 3.0
[18]; rate 0.062 kg/ha
  ZEAMX herbicidal rating: 4.0
[18]; rate 0.125 kg/ha
  ZEAMX herbicidal rating: 5.0
[19]; rate 0.016 kg/ha
  CASOB herbicidal rating: 0.0
[19]; rate 0.032 kg/ha
  CASOB herbicidal rating: 0.0
[19]; rate 0.062 kg/ha
  CASOB herbicidal rating: 0.0
[20]; 0.008 kg/ha
  Postemergence herbicidal rating TRZAWR: 2.5
[20]; 0.016 kg/ha
  Postemergence herbicidal rating TRZAWR: 4.5
[20]; 0.032 kg/ha
  Postemergence herbicidal rating TRZAWR: 4.5
[20]; 0.062 kg/ha
  Postemergence herbicidal rating TRZAWR: 5.5
[21]; rate 0.016 kg/ha
  CHEAL herbicidal rating: 3.0
[21]; rate 0.032 kg/ha
  CHEAL herbicidal rating: 9.0
[21]; rate 0.062 kg/ha
  CHEAL herbicidal rating: 9.0
[21]; rate 0.125 kg/ha
  CHEAL herbicidal rating: 9.0
[22]; 0.008 kg/ha
  Postemergence herbicidal rating ECHCG: 0.0
[22]; 0.016 kg/ha
  Postemergence herbicidal rating ECHCG: 0.0
[22]; 0.032 kg/ha
  Postemergence herbicidal rating ECHCG: 1.0
[22]; 0.062 kg/ha
  Postemergence herbicidal rating ECHCG: 1.0
[23]; 0.008 kg/ha
  Postemergence herbicidal rating CHEAL: 2.0
[23]; 0.016 kg/ha
  Postemergence herbicidal rating CHEAL: 4.0
[23]; 0.032 kg/ha
  Postemergence herbicidal rating CHEAL: 7.0
[23]; 0.062 kg/ha
  Postemergence herbicidal rating CHEAL: 9.0
[24]; rate 0.016 kg/ha
  ECHCG herbicidal rating: 0.0
[24]; rate 0.032 kg/ha
  ECHCG herbicidal rating: 0.0
[24]; rate 0.062 kg/ha
  ECHCG herbicidal rating: 0.0
[24]; rate 0.125 kg/ha
  ECHCG herbicidal rating: 7.0

— patent publication US20020111274A1, “1-alkyl-3-[1-(substituted phenyl) benzotriazol-6-yl] uracils” (BASF Aktiengesellschaft, priority 2000, published 2002)
